Molecular target: T1, ALDH1a3 (Homo sapiens, UniProt P47895)
T1 construct: lentiviral vectors containing either the vector backbone or full-length human Aldh1a3; expressed in transfected cells; host or cells: SUM159-M1a (A1) and SUM159 (A7) breast cancer cells, lentiviral pLex vector, puromycin selection
T1 sequence (P47895 1-512): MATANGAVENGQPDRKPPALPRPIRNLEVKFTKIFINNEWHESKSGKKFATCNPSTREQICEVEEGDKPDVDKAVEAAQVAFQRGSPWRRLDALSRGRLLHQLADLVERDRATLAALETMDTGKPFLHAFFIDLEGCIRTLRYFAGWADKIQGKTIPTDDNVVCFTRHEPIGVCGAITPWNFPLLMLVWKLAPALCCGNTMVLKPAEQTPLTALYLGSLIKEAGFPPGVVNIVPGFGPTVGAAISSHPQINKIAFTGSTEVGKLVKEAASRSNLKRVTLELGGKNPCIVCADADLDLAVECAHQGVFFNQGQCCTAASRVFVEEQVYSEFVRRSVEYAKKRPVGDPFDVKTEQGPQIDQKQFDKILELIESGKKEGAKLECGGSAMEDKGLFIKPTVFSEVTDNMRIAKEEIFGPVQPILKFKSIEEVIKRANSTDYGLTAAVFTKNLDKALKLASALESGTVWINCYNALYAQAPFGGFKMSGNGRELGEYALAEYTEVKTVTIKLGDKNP
Assay: ALDEFLUOR assay in SUM159-M1a-Aldh1a3 cells (flow cytometry)
Format: cell-based
Conditions: for Percent of Cells Positive for ALDEFLUOR at 100 nM / inhibition at 0.1 µM: SUM159-M1a-Aldh1a3 cells, compound at 100 nM; for inhibition at 0.1 µM: read-out: Inhibitory Activity at 100 nM (%)
Procedure: Cells were counted, centrifuged and resuspended at 1,000,000 cells/mL in ALDEFLUOR™ buffer (Stemcell Technologies). ALDEFLUOR™ substrate (Stemcell Technologies, 1:200) and test compound or 1 mM DEAB were added to cell suspension and incubated at 37° C. for 45 minutes with vortexing every 15 minutes. Cells were centrifuged and resuspended in ALDEFLUOR™ buffer with DAPI at 5 μg/mL. Samples were analyzed with the BD LSR2 flow cytometry platform. Gating was performed using DEAB as a negative control.
Gating for background fluorescence was performed using 1 millimolar DEAB as a negative control.
The [inh-min] threshold was set at the lower bound of two standard deviations of control samples, while the IC50 threshold was set at 50% of the average of control samples.
High activity was gated at the 99th percentile of cells at a MBE1.5 concentration of 10 nanomolar. The [inh-min] threshold was set at the lower bound of two standard deviations of control samples.
An ALDEFLUOR™ assay was also used to assess the relative activity of several compounds described herein against SUM159-M1a-Aldh1a3 cells. The activity of several compounds in the assay at a concentration of 100 nM is reported in Table 1, along with the chemical structure and compound name associated with each compound.

SMILES	Percent of Cells Positive for ALDEFLUOR at 100 nM [%]	inhibition at 0.1 µM [%]	relative potency, ALDEFLUOR activity (FIG. 12) (concentration of 10 nM, compared to DMSO or DEAB-treated cells)	inhibition of ALDH1a3 activity (FIG. 1A) (compounds at 100 nM)
CC(C)Cc1ccccc1C(=O)Nc1cc2c(cc1F)NC(=O)CC2 [MBE1.5C, N-(7-fluoro-2-oxo-1,2,3,4-tetrahydroquinolin-6-yl)-2-isobutylbenzamide]			nearly twice as potent as MBE 1.5, MBE 1.5A or MBE 1.5D	
O=C1CCc2cc(NC(=O)c3ccncc3)c(F)cc2N1 [MBE1.2, N-(7-fluoro-2-oxo-1,2,3,4-tetrahydroquinolin-6-yl)isonicotinamide]		8		
Cc1cncc(C(=O)Nc2cc3c(cc2F)NC(=O)CC3)c1 [MBE3.6, N-(7-fluoro-2-oxo-1,2,3,4-tetrahydroquinolin-6-yl)-5-methylnicotinamide]	55	29		
O=C1CCc2cc(NC(=O)c3ccncc3F)c(F)cc2N1 [MBE3.5, 3-fluoro-N-(7-fluoro-2-oxo-1,2,3,4-tetrahydroquinolin-6-yl)isonicotinamide]	63	18		
O=C1CCc2cc(NCc3ccc[nH]3)c(F)cc2N1 [MBE3.8, 6-(((1H-pyrrol-2-yl)methyl)amino)-7-fluoro-3,4-dihydroquinolin-2(1H)-one]	75	2		

The next lines start with results.

Percent of Cells Positive for ALDEFLUOR at 100 nM [%]	inhibition at 0.1 µM [%]	SMILES	relative potency, ALDEFLUOR activity (FIG. 12) (concentration of 10 nM, compared to DMSO or DEAB-treated cells)	inhibition of ALDH1a3 activity (FIG. 1A) (compounds at 100 nM)
13	83	CCc1cnccc1C(=O)Nc1ccc2c(c1)CCC(=O)N2 [MBE1.6, 3-ethyl-N-(2-oxo-1,2,3,4-tetrahydroquinolin-6-yl)isonicotinamide]		high-affinity compounds for the inhibition of ALDH1a3 activity
	45	Cc1ccc(C)c(CNc2ccc3c(c2)CCC(=O)N3)c1 [MBE2, 6-((2,5-dimethylbenzyl)amino)-3,4-dihydroquinolin-2(1H)-one]		
	3.3	Cc1ccc(C(=O)Nc2ccc3c(c2)CCC(=O)N3)c(C)c1 [MBE3.2, 2,4-dimethyl-N-(2-oxo-1,2,3,4-tetrahydroquinolin-6-yl)benzamide]		
	42	Cc1ccccc1C(=O)Nc1ccc2c(c1)CCC(=O)N2 [MBE3.3, 2-methyl-N-(2-oxo-1,2,3,4-tetrahydroquinolin-6-yl)benzamide]		
	11	O=C1CCc2cc(NCc3ccccc3)ccc2N1 [MBE3.4, 6-(benzylamino)-3,4-dihydroquinolin-2(1H)-one]		
	0.6	Cc1ccc(C(=O)Nc2ccc3c(c2)CCC(=O)N3)cc1C [MBE3.1, 3,4-dimethyl-N-(2-oxo-1,2,3,4-tetrahydroquinolin-6-yl)benzamide]		
